Test results published in patent publication US7183267B2, “β-lactamase inhibitors and methods of use thereof” (priority 2003, dated 2007).

Assays:
AmpC β-lactamase [1] = target: T1, AmpC β-lactamase (Escherichia coli, UniProt P00811); conditions: binding to AmpC; ITC
T1 construct: made in house; host or cells: E. coli BL21 (DE3)
Protocol: (§1) Isothermal titration calorimetry was performed on a high-precision VP-ITC titration calorimeter (Microcal Inc., Northampton, Mass.). β-Lactamase solutions were titrated with inhibitors in 50 mM sodium phosphate, 2% DMSO, pH 7.0, with β-lactamase concentrations ranging from 15 to 25 μM and inhibitor concentrations ranging from 300 to 1000 μM. The heat evolved from each injection was obtained by integrating the calorimetric signal. Heat of binding was obtained as the difference between the heat of reaction and the heat of inhibitor dilution. Data were analyzed using Origin 7.0 (OriginLab Corporation, Northampton, Mass.).
Isothermal titration calorimetry was undertaken to determine the thermodynamic characteristics of binding to AmpC β-lactamase.

TEM-1 β-lactamase [2] = target: T2, TEM-1 β-lactamase (Escherichia coli, UniProt P62593); assay: TEM-1 β-lactamase inhibition assay (nitrocefin hydrolysis, 486 nm); format: biochemical
Protocol: The inhibition of TEM-1 β-lactamase was determined spectrophotometrically. B-lactamase activity was followed by measuring the hydrolysis of nitrocefin, [3-(2,4-dinitrostyryl)-(6R, 7R)-7-(2-thienylacetamido)-ceph-3-em-4-carboxylic acid, E-isomer], (Calbiochem, San Diego, Calif., USA) at 486 nm. Inhibition assays were performed at 25° C. in 50 mM sodium phosphate, 5% DMSO, pH 7.0. […] Inhibitor was added to the enzyme and incubated for ten minutes before the addition of substrate. Inhibition constants (Ki) for the inhibitors are obtained at the desired temperature and solvent conditions by measuring the rate of substrate hydrolysis at increasing amounts of inhibitors.
(§2) The competitive inhibition of β-lactamase was determined spectrophotometrically using a Varian (Walnut Creek, Calif.) Cary 100 UV-Visible spectrophotometer. β-lactamase activity was followed by measuring the hydrolysis of nitrocefin, [3-(2,4-dinitrostyryl)-(6R, 7R)-7-(2-thienylacetamido)-ceph-3-em-4-carboxylic acid, E-isomer], (Calbiochem, San Diego, Calif.) at 486 nm. Inhibition assays were performed at 25° C. in 50 mM sodium phosphate, 5% DMSO, pH 7.0. […] Penicillin G (Sigma, St. Louis, Mo.) was also used as a substrate to determine KM and kcat.
(§3) Inhibitor was added to protein and incubated for ten minutes before the addition of substrate. Inhibition constants were determined by measuring the loss of P-lactamase activity with increasing inhibitor concentrations and fitting the data to standard equations for competitive inhibition.
(§4) These methods can also be used to express and assay recombinant TEM-1 variant of β-lactamase.

AmpC β-lactamase [3] = target: T1, AmpC β-lactamase; assay: AmpC β-lactamase competitive inhibition assay (nitrocefin hydrolysis); format: biochemical
Protocol: The gene for AmpC β-lactamase (accession number P00811) was obtained from Escherichia coli K12 strain W3110 (American Type Culture Collection, Rockville Md.). E. coli was grown and plasmid (F-lacIq lacPL8 ampC::lambdacI+) was isolated via Qiagen (Valencia, Calif.) mini prep. The gene for AmpC was amplified in two pieces via polymerase chain reaction, ligated and purified by agarose gel electrophoresis. The ligated gene was inserted into a pET200 vector via a TOPO reaction (Invitrogen, Carlsbad, Calif.).
BL21 (DE3) (Invitrogen) cells were transformed by heat-shock with the prepared plasmid. These cells were grown to an OD600 of 0.8 at 37° C. Isopropylthiogalactoside (IPTG) was added to 1 mM, incubation temperature decreased to 25° C. and the cells were grown for an additional 18 hours. After 18 hours, the E. coli was pelleted by centrifugation, and discarded. The growth media was concentrated and dialyzed versus 100 mM Tris, pH 7.0. This solution was run through an equilibrated Q-resin column, and washed with excess 100 mM Tris, pH 7.0.
as §2, §3

TEM-1 β-lactamase [4] = target: T2, TEM-1 β-lactamase; assay: Isothermal titration calorimetry, binding to TEM-1 β-lactamase (Example 17); conditions: ITC
Protocol: as §1, §4
Also shown are the results obtained for β-lactamase variant TEM-1.

[5] = Ki, 25° C., 50 mM sodium phosphate, 5% DMSO, pH 7.0, enzyme 5 nM, nitrocefin 167 μM
[6] = Ki from Lineweaver-Burke Analysis, values in parenthesis, Lineweaver-Burke analysis

T1 sequence (P00811 20-377): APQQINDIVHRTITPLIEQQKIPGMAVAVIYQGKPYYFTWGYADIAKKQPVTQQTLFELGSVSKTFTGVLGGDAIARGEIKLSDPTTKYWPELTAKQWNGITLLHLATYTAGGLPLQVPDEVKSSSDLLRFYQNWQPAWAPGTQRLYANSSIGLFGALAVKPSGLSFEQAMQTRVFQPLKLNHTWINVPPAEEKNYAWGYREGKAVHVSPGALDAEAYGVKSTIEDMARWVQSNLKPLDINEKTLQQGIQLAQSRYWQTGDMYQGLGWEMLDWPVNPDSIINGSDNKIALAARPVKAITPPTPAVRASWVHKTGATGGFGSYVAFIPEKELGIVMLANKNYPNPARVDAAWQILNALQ
T2 sequence (P62593 24-286 limits assumed): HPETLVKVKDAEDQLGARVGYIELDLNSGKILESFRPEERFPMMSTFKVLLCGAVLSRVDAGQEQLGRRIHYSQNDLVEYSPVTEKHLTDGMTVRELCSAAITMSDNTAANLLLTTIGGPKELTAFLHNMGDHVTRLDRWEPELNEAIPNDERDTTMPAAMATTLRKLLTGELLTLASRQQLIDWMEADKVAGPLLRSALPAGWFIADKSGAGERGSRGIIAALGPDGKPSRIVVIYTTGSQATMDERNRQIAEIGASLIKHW

SMILES: O=C(OCc1cccc(B(O)O)c1)c1cc(B(O)O)cc([N+](=O)[O-])c1 [Compound (3d), 3-(3-Boronobenzyloxycarbonyl)-5-nitrophenylboronic acid]
- ΔG (AmpC β-lactamase [1]): -7.442 kcal/mol
- ΔH (AmpC β-lactamase [1]): -15.637 kcal/mol
- −TΔS (AmpC β-lactamase [1]): 8.195 kcal/mol
- Ki (TEM-1 β-lactamase [2]; [5]): 55.7 ± 4.3 µM
- Ki (AmpC β-lactamase [3]): 1.03 µM

SMILES: O=C(OCc1cccc(Cl)c1)c1cc(B(O)O)cc([N+](=O)[O-])c1 [Compound (3c), 3-(3-Chlorobenzyloxycarbonyl)-5-nitrophenylboronic acid]
- Ki (TEM-1 β-lactamase [2]; [6]): 2.35 µM
- Ki (TEM-1 β-lactamase [2]; [5]): 25 ± 1.5 µM

SMILES: CCCCOC(=O)c1cccc(B(O)O)c1 [Compound BB-1003]
- Ki (TEM-1 β-lactamase [2]; [5]): 231 µM

SMILES: O=C(OCc1cccc([N+](=O)[O-])c1)c1cc(B(O)O)cc([N+](=O)[O-])c1 [Compound (3b), 3-(3-Nitrobenzyloxycarbonyl)-5-nitrophenylboronic acid]
- Ki (TEM-1 β-lactamase [2]; [6]): 2.76 µM
- Ki (TEM-1 β-lactamase [2]; [5]): 27 ± 3.4 µM

SMILES: O=C(Oc1c(Cl)cc(Cl)cc1Cl)c1cc(B(O)O)cc([N+](=O)[O-])c1 [Compound (1y), 3-(2,4,6-Trichlorophenoxycarbonyl)-5-nitro-phenylboronic acid]
- ΔG (TEM-1 β-lactamase [4]): -6.55 kcal/mol
- ΔH (TEM-1 β-lactamase [4]): 0 kcal/mol
- −TΔS (TEM-1 β-lactamase [4]): -6.55 kcal/mol
- Ki (TEM-1 β-lactamase [2]; Ki, TEM-1 β-lactamase): 15.8 µM

SMILES: OB(O)c1cccc2c1Sc1ccccc1S2 [Compound F1012]
- Ki (TEM-1 β-lactamase [2]; [5]): 113 µM

SMILES: O=C(Oc1cccnc1Cl)c1cc(B(O)O)cc([N+](=O)[O-])c1 [Compound (1s), 3-(2-Chloro-3-pyridyloxycarbonyl)-5-nitrophenylboronic acid]
- Ki (TEM-1 β-lactamase [2]; [5]): 42.3 ± 2.4 µM

SMILES: Nc1cc(B(O)O)cc(C(=O)O)c1 [Compound (5a), 3–5-carboxylphenylboronic acid]
- Ki (TEM-1 β-lactamase [2]; [5]): 727 ± 49 µM

SMILES: O=C(Oc1ccncc1)c1cc(B(O)O)cc([N+](=O)[O-])c1 [(1r), 3-(4-pyridyloxycarbonyl)-5-nitro-phenylboronic acid]
- Ki (TEM-1 β-lactamase [2]; [5]): 138 ± 2.7 µM

SMILES: Cc1cccc(OC(=O)c2cc(B(O)O)cc([N+](=O)[O-])c2)c1 [(1m), 3-(3-Methylphenoxycarbonyl)-5-nitrophenylboronic acid]
- Ki (TEM-1 β-lactamase [2]; [5]): 114 ± 12 µM

SMILES: O=C(OCc1ccccc1)c1cccc(B(O)O)c1 [Compound F1001]
- ΔG (AmpC β-lactamase [1]): -6.83 kcal/mol
- ΔH (AmpC β-lactamase [1]): -0.644 kcal/mol
- −TΔS (AmpC β-lactamase [1]): -6.186 kcal/mol
- Ki (TEM-1 β-lactamase [2]; [5]): 104 µM
- Ki (AmpC β-lactamase [3]): 1.79 µM

SMILES: O=C(Oc1ccc(OC(=O)c2cc(B(O)O)cc([N+](=O)[O-])c2)cc1)c1cc(B(O)O)cc([N+](=O)[O-])c1 [Compound (2a), 3-Borono-5-nitrobenzoic acid 1,4-phenylene ester]
- ΔG (TEM-1 β-lactamase [4]): -7.451 kcal/mol
- ΔH (TEM-1 β-lactamase [4]): 0.274 kcal/mol
- −TΔS (TEM-1 β-lactamase [4]): -7.725 kcal/mol
- Ki (TEM-1 β-lactamase [2]; [5]): 22.7 ± 1.3 µM
- Ki (TEM-1 β-lactamase [2]; Ki, TEM-1 β-lactamase): 22.7 µM

SMILES: O=C(Oc1cccc(B(O)O)c1)c1ccc(C(=O)Oc2cccc(B(O)O)c2)cc1 [Compound (11a), 1,4-Benzenedicarboxylic Acid, di 3-boronophenyl ester]
- ΔG (AmpC β-lactamase [1]): -7.548 kcal/mol
- ΔH (AmpC β-lactamase [1]): -3.114 kcal/mol
- −TΔS (AmpC β-lactamase [1]): -4.434 kcal/mol
- Ki (AmpC β-lactamase [3]): 1.31 µM

SMILES: O=C(OCc1ccccc1)c1ccc(B(O)O)cc1 [Compound F1002]
- Ki (TEM-1 β-lactamase [2]; [5]): 148 µM

SMILES: O=C(Oc1ccccc1F)c1cc(B(O)O)cc([N+](=O)[O-])c1 [Compound (1o), 3-(2-Fluorophenoxycarbonyl)-5-nitrophenylboronic acid]
- Ki (TEM-1 β-lactamase [2]; [5]): 49.3 ± 4.6 µM

SMILES: O=C(Oc1ccccc1)c1cc(B(O)O)cc([N+](=O)[O-])c1 [Compound (1t), 3-Phenoxycarbonyl-5-nitrophenylboronic acid]
- Ki (TEM-1 β-lactamase [2]; [6]): 6.54 µM
- Ki (TEM-1 β-lactamase [2]; [5]): 95 ± 8.7 µM
